This assay has as its target Beta-adrenergic receptor (Mus musculus, UniProt P34971+P18762+P25962). As to the kind of experiment: Effective concentration against 125I]iodocyanopindolol(ICYP) binding to beta adrenergic receptor was determined. Format: protein assay.

These results are taken from ChEMBL document CHEMBL1122997, “Conjugates of catecholamines. 5. Synthesis and beta-adrenergic activity of N-(aminoalkyl)norepinephrine derivatives” (J Med Chem, 1985).

What is called EC50 is the concentration giving half of the maximal effect. The low end stands for greater potency, the high end for weaker potency. With `NCCCNCC(O)c1ccc(O)c(O)c1` (configuration not stated), the EC50 worked out at 160 µM. As for `CC(CCCCNC(=O)OCc1ccccc1)NCC(O)c1ccc(O)c(O)c1` (configuration not stated), the figure is 0.049 µM.
